According to BindingDB's records for patent US10738057 (Incyte Corporation, 2020):

How the values were obtained:
[1] = target: Phosphatidylinositol 4,5-bisphosphate 3-kinase catalytic subunit gamma isoform (Homo sapiens, UniProt P48736); experiment: Scintillation Proximity Assay
Description: PI3K-γ: [γ-33P]ATP (10 mCi/mL) and Wheat Germ Agglutinin (WGA) YSi SPA Scintillation Beads was purchased from PerkinElmer (Waltham, Mass.). Lipid kinase substrate, D-myo-Phosphatidylinositol 4,5-bisphosphate (PtdIns(4,5)P2)D (+)-sn-1,2-di-O-octanoylglyceryl, 3-O-phospho linked (PIP2), CAS 204858-53-7, was purchased from Echelon Biosciences (Salt Lake City, Utah). PI3Kγ (p110γ) Recombinant Human Protein was purchased from Life technology (Grand Island, N.Y.). ATP, MgCl2, DTT, EDTA, MOPS and CHAPS were purchased from SigmaAldrich (St. Louis, Mo.).The kinase reaction was conducted in polystyrene 384-well Greiner Bio-one white plate from Thermo Fisher Scientific in a final volume of 25 μL. Inhibitors were first diluted serially in DMSO and added to the plate wells before the addition of other reaction components. The final concentration of DMSO in the assay was 2%. The PI3Kγ assay was carried out at room temperature in 20 mM MOPS, pH 6.7, 10 mM MgCl2, 5 mM DTT and CHAPS 0.03%. Reactions were initiated by the addition of ATP, the final reaction mixture consisted of 20 μM PIP2, 2 μM ATP, 0.5 μCi [γ-33P] ATP, 13 nM PI3Kγ. Reactions were incubated for 120 min and terminated by the addition of 40 μL SPA beads suspended in quench buffer: 163 mM potassium phosphate pH 7.8, 20% glycerol, 25 mM EDTA. The final concentration of SPA beads is 1.0 mg/mL. After the plate sealing, plates were shaken overnight at room temperature and centrifuged at 1500 rpm for 10 min, the radioactivity of the product was determined by scintillation counting on Topcount (Perkin-Elmer).

[2] = target: T1, Phosphatidylinositol 4,5-bisphosphate 3-kinase catalytic subunit delta isoform (Homo sapiens, UniProt O00329); experiment: Scintillation Proximity Assay
T1 sequence (O00329 whole entry): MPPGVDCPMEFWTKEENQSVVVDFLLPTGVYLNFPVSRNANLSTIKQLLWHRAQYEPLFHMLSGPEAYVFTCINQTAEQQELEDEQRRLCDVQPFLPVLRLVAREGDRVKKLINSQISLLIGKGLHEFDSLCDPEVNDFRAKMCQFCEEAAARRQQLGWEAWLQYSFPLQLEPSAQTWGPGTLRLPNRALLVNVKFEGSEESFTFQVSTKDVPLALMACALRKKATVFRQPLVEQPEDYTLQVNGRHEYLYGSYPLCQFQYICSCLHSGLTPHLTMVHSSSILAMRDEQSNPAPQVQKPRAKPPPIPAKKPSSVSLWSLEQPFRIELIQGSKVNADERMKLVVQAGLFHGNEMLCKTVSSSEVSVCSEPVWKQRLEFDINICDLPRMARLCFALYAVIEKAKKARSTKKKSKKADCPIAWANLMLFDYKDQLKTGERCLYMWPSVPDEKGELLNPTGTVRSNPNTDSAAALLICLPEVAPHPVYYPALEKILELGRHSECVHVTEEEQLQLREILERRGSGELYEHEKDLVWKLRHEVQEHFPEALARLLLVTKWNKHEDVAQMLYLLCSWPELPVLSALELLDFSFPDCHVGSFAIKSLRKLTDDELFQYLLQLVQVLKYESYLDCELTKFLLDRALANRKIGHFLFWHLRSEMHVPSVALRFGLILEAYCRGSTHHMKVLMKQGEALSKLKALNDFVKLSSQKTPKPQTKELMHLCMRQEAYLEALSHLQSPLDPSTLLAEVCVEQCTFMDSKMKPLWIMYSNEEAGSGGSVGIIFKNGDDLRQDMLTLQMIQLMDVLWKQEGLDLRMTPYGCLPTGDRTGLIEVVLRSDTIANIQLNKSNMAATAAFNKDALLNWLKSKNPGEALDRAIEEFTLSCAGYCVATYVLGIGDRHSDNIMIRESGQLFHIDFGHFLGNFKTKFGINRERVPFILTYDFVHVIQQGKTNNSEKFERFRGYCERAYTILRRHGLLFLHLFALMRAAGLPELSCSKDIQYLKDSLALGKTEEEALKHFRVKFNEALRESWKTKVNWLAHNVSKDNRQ
Description: PI3Kδ: [γ-33P]ATP (10 mCi/mL) and Wheat Germ Agglutinin (WGA) YSi SPA Scintillation Beads was purchased from PerkinElmer (Waltham, Mass.). Lipid kinase substrate, D-myo-Phosphatidylinositol 4,5-bisphosphate (PtdIns(4,5)P2)D (+)-sn-1,2-di-O-octanoylglyceryl, 3-O-phospho linked (PIP2), CAS 204858-53-7, was purchased from Echelon Biosciences (Salt Lake City, Utah). PI3Kδ (p110δ/p85α) Recombinant Human Protein was purchased from Eurofins. ATP, MgCl2, DTT, EDTA, MOPS and CHAPS were purchased from SigmaAldrich.The kinase reaction was conducted in polystyrene 384-well Greiner Bio-one white plate from Thermo Fisher Scientific in a final volume of 25 μL. Inhibitors were first diluted serially in DMSO and added to the plate wells before the addition of other reaction components. The final concentration of DMSO in the assay was 2%. The PI3Kδ assay was carried out at room temperature in 20 mM MOPS, pH 6.7, 10 mM MgCl2, 5 mM DTT and CHAPS 0.03%. Reactions were initiated by the addition of ATP, the final reaction mixture consisted of 20 μM PIP2, 2 μM ATP, 0.5 μCi [γ-33P] ATP, 3.4 nM PI3Kδ. Reactions were incubated for 120 min and terminated by the addition of 40 μL SPA beads suspended in quench buffer: 163 mM potassium phosphate pH 7.8, 20% glycerol, 25 mM EDTA. The final concentration of SPA beads is 1.0 mg/mL. After the plate sealing, plates were shaken overnight at room temperature and centrifuged at 1500 rpm for 10 min, the radioactivity of the product was determined by scintillation counting on Topcount.

Phosphatidylinositol 4,5-bisphosphate 3-kinase catalytic subunit gamma isoform, sequence (P48736 whole entry, canonical isoform): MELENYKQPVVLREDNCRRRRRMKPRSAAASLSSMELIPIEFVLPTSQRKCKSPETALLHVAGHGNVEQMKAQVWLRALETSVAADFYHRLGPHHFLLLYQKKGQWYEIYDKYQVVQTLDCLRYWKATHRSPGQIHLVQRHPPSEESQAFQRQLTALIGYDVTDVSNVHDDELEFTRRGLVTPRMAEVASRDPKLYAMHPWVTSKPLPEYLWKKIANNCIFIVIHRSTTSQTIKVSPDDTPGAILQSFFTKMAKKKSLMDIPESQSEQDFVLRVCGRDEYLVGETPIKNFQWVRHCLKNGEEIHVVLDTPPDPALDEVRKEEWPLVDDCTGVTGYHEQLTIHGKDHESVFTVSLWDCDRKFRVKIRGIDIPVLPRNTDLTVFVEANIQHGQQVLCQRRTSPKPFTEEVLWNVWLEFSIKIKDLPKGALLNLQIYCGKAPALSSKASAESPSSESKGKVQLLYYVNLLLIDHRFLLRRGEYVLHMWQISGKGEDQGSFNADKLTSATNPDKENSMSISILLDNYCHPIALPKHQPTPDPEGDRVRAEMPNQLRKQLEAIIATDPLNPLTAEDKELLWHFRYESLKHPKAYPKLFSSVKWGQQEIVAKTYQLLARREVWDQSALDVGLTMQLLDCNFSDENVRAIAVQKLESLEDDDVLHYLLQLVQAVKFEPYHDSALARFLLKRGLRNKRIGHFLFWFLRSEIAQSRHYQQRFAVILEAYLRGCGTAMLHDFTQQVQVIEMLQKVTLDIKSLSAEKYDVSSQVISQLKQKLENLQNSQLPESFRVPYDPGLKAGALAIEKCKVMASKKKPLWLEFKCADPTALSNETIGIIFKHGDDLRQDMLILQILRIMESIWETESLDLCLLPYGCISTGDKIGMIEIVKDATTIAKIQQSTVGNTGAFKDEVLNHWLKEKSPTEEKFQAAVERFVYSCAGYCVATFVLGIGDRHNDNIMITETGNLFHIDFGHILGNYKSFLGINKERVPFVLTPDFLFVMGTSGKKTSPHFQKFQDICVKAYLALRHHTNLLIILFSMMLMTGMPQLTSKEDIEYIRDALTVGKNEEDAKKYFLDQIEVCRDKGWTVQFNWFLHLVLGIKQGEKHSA

Structure (SMILES)	IC50 [1]	IC50 [2]
Cc1ccc(C(C)C(F)(F)F)cc1-c1cnc2c(N)nc(-c3cnn(C)c3)cn12 (stereo unspecified) [US10738057, Example 69]	< 100 nM	< 100 nM
Cc1ncc(-c2cn3c(-c4cc(C(C)C(F)(F)F)ccc4C)cnc3c(N)n2)s1 (stereo unspecified) [US10738057, Example 70]	< 100 nM	< 100 nM
Cc1ccc(C(C)C(F)(F)F)cc1-c1cnc2c(N)nc(-c3cnco3)cn12 (stereo unspecified) [US10738057, Example 71]	< 100 nM	< 100 nM
